The text below walks through data of publication PMC6576746, “Rational discovery of dual-indication multi-target PDE/Kinase inhibitor for precision anti-cancer therapy using structural systems pharmacology” (PLoS Computational Biology, 2019).

As a reminder, the Kd is a measure of binding affinity in units of concentration. A word on the IC50: it is the midpoint of a concentration-inhibition curve. High values mean weaker potency, low ones greater potency. The GI50 is the concentration at which growth is held to half of that of the control. The low end stands for more potent growth inhibition, the high end for less potent growth inhibition. In general, EC50 refers to the midpoint of the concentration-response curve.

Experiment [1] has as its target PIP5K1A (Homo sapiens, UniProt Q99755). Kind of experiment: KinomeScan competition binding assay. Also on record: DiscoverX KinomeScan panel kinase. Particulars: 10 μM levosimendan.
Experiment [2] concerns the target T1, RIOK1 (serine/threonine-protein kinase RIOK1) (Homo sapiens, UniProt Q9BRS2).
T1 construct: DiscoverX KinomeScan panel kinase
Kind of experiment: KinomeScan competition binding assay, dose-response. To be noted: DiscoverX; Hill equation fit.

Experiment [3] relates to Mia PaCa-2. Kind of experiment: cells. Also on record: species or system panel of human cancer cell lines; Eurofins OncoPanel proliferation; nuclei count by high-content fluorescence imaging, 10-point dose response. Particulars: Homo sapiens, MIA PaCa-2, 72 h, cell count, 3 days. A digest of the protocol:
(§1)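 Cells in RPMI 1640/10% FBS or special medium received compound the day after seeding, with a time-zero plate; 3-day incubation at 37°C, 5% CO2. Nuclei imaged by fluorescence microscopy; 10 half-log doses from 100 μM, 0.1% DMSO. EC50, IC50, GI50 and activity area (0–10) from curve fits.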

The subject of experiment [4] is ST486. Kind of experiment: cells. Also noted: species or system panel of human cancer cell lines; Eurofins OncoPanel proliferation; nuclei count by high-content fluorescence imaging, 10-point dose response. To be noted: Homo sapiens, ST486, 72 h, cell count, 3 days. The essentials: as §1
The test system of experiment [5] is Hs 445. Kind of experiment: cells. Also noted: species or system panel of human cancer cell lines; Eurofins OncoPanel proliferation; nuclei count by high-content fluorescence imaging, 10-point dose response. Particulars: Hs 445, 72 h, cell count, 3 days. The essentials: as §1
For experiment [6], the system named is CCF-STTG1. Kind of experiment: cells. Also noted: species or system panel of human cancer cell lines; Eurofins OncoPanel proliferation; nuclei count by high-content fluorescence imaging, 10-point dose response. Particulars: Homo sapiens, CCF-STTG1, 72 h, cell count, 3 days. A digest of the protocol:
as §1

[7] abbreviates: 50% of maximum possible response.

The structures appear in SMILES notation.

Chain of PIP5K1A (Q99755 whole entry): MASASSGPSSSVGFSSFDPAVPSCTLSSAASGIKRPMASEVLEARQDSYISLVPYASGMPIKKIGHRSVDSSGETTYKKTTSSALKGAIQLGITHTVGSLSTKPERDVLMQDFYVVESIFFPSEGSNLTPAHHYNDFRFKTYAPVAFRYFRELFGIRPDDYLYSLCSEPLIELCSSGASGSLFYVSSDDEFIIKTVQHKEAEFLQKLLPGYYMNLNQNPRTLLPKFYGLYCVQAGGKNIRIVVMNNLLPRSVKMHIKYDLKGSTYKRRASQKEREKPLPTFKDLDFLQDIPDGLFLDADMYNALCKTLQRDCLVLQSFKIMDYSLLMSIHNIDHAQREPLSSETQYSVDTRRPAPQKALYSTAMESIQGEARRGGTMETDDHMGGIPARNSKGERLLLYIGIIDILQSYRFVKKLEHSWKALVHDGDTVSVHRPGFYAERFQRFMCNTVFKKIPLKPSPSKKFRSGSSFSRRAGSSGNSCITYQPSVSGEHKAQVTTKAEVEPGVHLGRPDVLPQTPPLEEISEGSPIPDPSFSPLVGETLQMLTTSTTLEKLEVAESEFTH
T1 sequence (Q9BRS2 whole entry): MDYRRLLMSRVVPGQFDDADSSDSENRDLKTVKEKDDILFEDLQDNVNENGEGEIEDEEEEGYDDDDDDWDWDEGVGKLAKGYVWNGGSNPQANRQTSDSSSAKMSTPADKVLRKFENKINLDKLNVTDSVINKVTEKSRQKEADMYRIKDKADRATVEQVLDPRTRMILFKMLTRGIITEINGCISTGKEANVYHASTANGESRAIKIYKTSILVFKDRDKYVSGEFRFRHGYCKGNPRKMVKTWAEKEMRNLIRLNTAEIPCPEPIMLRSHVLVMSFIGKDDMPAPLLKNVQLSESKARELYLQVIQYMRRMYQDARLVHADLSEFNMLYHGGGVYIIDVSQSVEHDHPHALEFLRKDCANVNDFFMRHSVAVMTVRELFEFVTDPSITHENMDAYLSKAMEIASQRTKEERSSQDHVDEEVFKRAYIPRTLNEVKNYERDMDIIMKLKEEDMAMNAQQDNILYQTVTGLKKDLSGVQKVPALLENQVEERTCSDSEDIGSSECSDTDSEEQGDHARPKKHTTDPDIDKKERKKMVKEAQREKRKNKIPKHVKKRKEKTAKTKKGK

Turning to `C[C@@H]1CC(=O)NN=C1c1ccc(NN=C(C#N)C#N)cc1` [levosimendan], the “percentage control at 10 μM” value in experiment [1] is recorded as less than 30.0%. Further, the affinity in experiment [2], expressed as Kd, was 0.82 µM. The IC50 was 11 µM in experiment [3] (setting [7]), 8.16 µM in experiment [4] (setting [7]), 30.6 µM in experiment [5] (setting [7]) and more than 100 µM in experiment [6] (setting [7]). Besides, the concentration for 50% growth inhibition (GI50) was 9.38 µM in experiment [3] (corrected for time zero), 6.04 µM in experiment [4] (corrected for time zero), 21.8 µM in experiment [5] (corrected for time zero) and more than 100 µM in experiment [6] (corrected for time zero). For the same molecule, the concentration for a half-maximal effect (EC50) is 9.92 µM in experiment [3] (curve inflection point), 8.16 µM in experiment [4] (curve inflection point), 26.3 µM in experiment [5] (curve inflection point) and more than 100 µM in experiment [6] (curve inflection point).
